Measurements published in patent publication US6723747B2, “Substituted 6H-DiBenzo[c,h]chromenes as estrogenic agents” (Wyeth, priority 2001, dated 2004).

Tests used:
HLA-B27 rats = assay: HLA rat test procedure for inflammatory bowel disease; format: in vivo; settings: for stool character, group's average score: 10 mg/kg oral daily, 3=diarrhea, 2=soft, 1=normal stool
Experimental: Representative compounds of the invention were evaluated in the HLA rat standard pharmacological test procedure which emulates inflammatory bowel disease in humans. The following briefly describes the procedure used and results obtained. Male HLA-B27 rats were obtained from Taconic and provided unrestricted access to food (PMI Lab diet 5001) and water. Rats were dosed once daily (orally) with either vehicle (2% tween-80/0.5% methylcellulose) or Example 1d (10 mg/kg) for 26 days. Stool quality was observed daily and graded according to the following scale: Diarrhea=3; soft stool=2; normal stool=1. […] At the end of the study, serum was collected and stored at −70° C. A section of colon was prepared for histological analysis and an additional segment was analyzed for myeloperoxidase activity.
Histological analysis. Colonic tissue was immersed in 10% neutral buffered formalin. Each specimen of colon was separated into four samples for evaluation. The formalin-fixed tissues were processed in a Tissue Tek vacuum infiltration processor (Miles, Inc; West Haven, Conn.) for paraffin embedding. The samples were sectioned at 5 μm and then stained with hematoxylin and eosin (H&E) for blinded histologic evaluations using a scale modified after Boughton-Smith. After the scores were completed the samples were unblinded, and data were tabulated and analyzed by ANOVA linear modeling with multiple mean comparisons. Sections of colonic tissue were evaluated for several disease indicators and given relative scores.

Lewis rats = assay: Lewis rat adjuvant-induced arthritis, treatment test procedure; format: in vivo; settings: for joint inflammation score (maximal score per day 12): 10 mg/kg sc daily, treatment begun Day 8 after adjuvant
human ERα = target: T1, human ERα (Homo sapiens, UniProt P03372); assay: Radioligand binding competition with [3H]-17β-estradiol, ERα; settings: human ERα ligand binding domain, read-out: ER-α IC50
T1 construct: amino acids M250-V595 of human ERα; His (N); made in house; host or cells: E. coli BL21(DE3), clarified lysate
T1 sequence (P03372 250-595): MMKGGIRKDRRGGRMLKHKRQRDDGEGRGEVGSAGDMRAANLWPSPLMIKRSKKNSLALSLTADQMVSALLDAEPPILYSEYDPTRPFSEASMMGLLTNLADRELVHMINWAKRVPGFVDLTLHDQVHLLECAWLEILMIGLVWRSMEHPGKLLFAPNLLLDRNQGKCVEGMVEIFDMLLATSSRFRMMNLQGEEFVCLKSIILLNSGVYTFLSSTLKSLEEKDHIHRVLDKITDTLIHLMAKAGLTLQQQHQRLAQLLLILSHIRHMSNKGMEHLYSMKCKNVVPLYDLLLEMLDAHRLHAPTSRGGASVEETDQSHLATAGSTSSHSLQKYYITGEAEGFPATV

[1] = tarsal joints, 10 mg/kg, vehicle 2.58 ± 0.38

N#Cc1cc2c(c3ccc(O)cc13)OCc1cc(O)ccc1-2 [Example 1d, 2,8-Dihydroxy-6H-dibenzo[c,h]chromene-12-carbonitrile]
stool quality (HLA-B27 rats; 10 mg/kg orally once daily for 26 days): stool quality improved
stool character, group's average score (HLA-B27 rats; day 1, vehicle 1): 1
stool character, group's average score (HLA-B27 rats; day 2, vehicle 1): 1
stool character, group's average score (HLA-B27 rats; day 3, vehicle 1): 1
stool character, group's average score (HLA-B27 rats; day 4, vehicle 1.25): 1
stool character, group's average score (HLA-B27 rats; day 5, vehicle 2.5): 1.5
stool character, group's average score (HLA-B27 rats; day 6, vehicle 2.75): 1.25
stool character, group's average score (HLA-B27 rats; day 7, vehicle 2.75): 1.25
stool character, group's average score (HLA-B27 rats; day 8, vehicle 2.75): 1
stool character, group's average score (HLA-B27 rats; day 9, vehicle 3): 1.25
stool character, group's average score (HLA-B27 rats; day 10, vehicle 3): 1
stool character, group's average score (HLA-B27 rats; day 11, vehicle 2.75): 1.25
stool character, group's average score (HLA-B27 rats; day 12, vehicle 2.75): 1.25
stool character, group's average score (HLA-B27 rats; day 13, vehicle 2.75): 1.25
stool character, group's average score (HLA-B27 rats; day 14, vehicle 2.75): 1.25
stool character, group's average score (HLA-B27 rats; day 15, vehicle 2.75): 1
stool character, group's average score (HLA-B27 rats; day 16, vehicle 3): 1
stool character, group's average score (HLA-B27 rats; day 17, vehicle 2.75): 1
stool character, group's average score (HLA-B27 rats; day 18, vehicle 2.75): 1
stool character, group's average score (HLA-B27 rats; day 19, vehicle 2.75): 1
stool character, group's average score (HLA-B27 rats; day 22, vehicle 3): 1
stool character, group's average score (HLA-B27 rats; day 23, vehicle 3): 1
stool character, group's average score (HLA-B27 rats; day 24, vehicle 3): 1
stool character, group's average score (HLA-B27 rats; day 25, vehicle 3): 1
stool character, group's average score (HLA-B27 rats; day 26, vehicle 3): 1
measurements of tissue injury in colon (HLA-B27 rats; histological analysis, 10 mg/kg orally): effective in reducing several measurements of tissue injury
Fibrosis (0-2), colon histological score, mean ± SD (HLA-B27 rats; treated orally for 4 weeks, 10 mg/kg, vehicle 1.06 ± 0.32): 0.13 ± 0.14
Ulceration (0-2), colon histological score, mean ± SD (HLA-B27 rats; treated orally for 4 weeks, 10 mg/kg, vehicle 1.44 ± 0.66): 0.19 ± 0.13
Lesion depth (0-2), colon histological score, mean ± SD (HLA-B27 rats; treated orally for 4 weeks, 10 mg/kg, vehicle 1.56 ± 0.63): 0.19 ± 0.13
Inflammation (0-3), colon histological score, mean ± SD (HLA-B27 rats; treated orally for 4 weeks, 10 mg/kg, vehicle 2.88 ± 0.14): 1.38 ± 0.43
Total score, colon histological score, mean ± SD (HLA-B27 rats; treated orally for 4 weeks, 10 mg/kg, vehicle 6.94 ± 1.51): 1.88 ± 0.14
joint inflammation score (maximal score per day 12) (Lewis rats; day 1, vehicle 10.83): 11.33
joint inflammation score (maximal score per day 12) (Lewis rats; day 2, vehicle 11.00): 11.15
joint inflammation score (maximal score per day 12) (Lewis rats; day 3, vehicle 10.83): 11.33
joint inflammation score (maximal score per day 12) (Lewis rats; day 4, vehicle 11.33): 9.83
joint inflammation score (maximal score per day 12) (Lewis rats; day 5, vehicle 11.50): 8.83
joint inflammation score (maximal score per day 12) (Lewis rats; day 6, vehicle 11.50): 7.83
joint inflammation score (maximal score per day 12) (Lewis rats; day 7, vehicle 11.50): 6.16
joint inflammation score (maximal score per day 12) (Lewis rats; day 8, vehicle 11.50): 5.00
joint inflammation score (maximal score per day 12) (Lewis rats; day 9, vehicle 11.00): 4.33
joint inflammation score (maximal score per day 12) (Lewis rats; day 10, vehicle 11.00): 2.66
joint inflammation score (maximal score per day 12) (Lewis rats; day 11, vehicle 10.66): 1.83
joint inflammation score (maximal score per day 12) (Lewis rats; day 12, vehicle 10.66): 1.83
joint inflammation score (maximal score per day 12) (Lewis rats; day 13, vehicle 10.50): 2.66
joint inflammation score (maximal score per day 12) (Lewis rats; day 14, vehicle 9.83): 2.66
joint inflammation score (maximal score per day 12) (Lewis rats; day 15, vehicle 8.10): 2.00
joint inflammation score (maximal score per day 12) (Lewis rats; day 16, vehicle 7.35): 2.00
joint inflammation score (maximal score per day 12) (Lewis rats; day 17, vehicle 6.50): 1.50
Tidemark Integrity (0-1), Mankin score (Lewis rats; tarsal joints, 10 mg/kg, vehicle 0): 0
Pannus (0-1), synovitis histological score, mean ± SD (Lewis rats; tarsal joints, 10 mg/kg, vehicle 1.00 ± 0.89): 0.08 ± 0.20
Fibroplasia (0-3), synovitis histological score, mean ± SD (Lewis rats; tarsal joints, 10 mg/kg, vehicle 1.75 ± 0.42): 0.75 ± 0.42
Saffranin-O/Fast Green Staining (0-4), Mankin score, mean ± SD (Lewis rats; tarsal joints, 10 mg/kg, vehicle 2.50 ± 0.32): 1.25 ± 0.61
Cartilage Cells (0-3), Mankin score, mean ± SD (Lewis rats; [1]): 0.58 ± 0.38
Synovial Structure (0-3), synovitis histological score, mean ± SD (Lewis rats; [1]): 1.75 ± 0.52
Cartilage Structure (0-6), Mankin score, mean ± SD (Lewis rats; tarsal joints, 10 mg/kg, vehicle 2.83 ± 0.26): 1.67 ± 0.41
Inflammatory Cells (0-3), synovitis histological score, mean ± SD (Lewis rats; tarsal joints, 10 mg/kg, vehicle 2.92 ± 0.20): 1.33 ± 0.41
Total Mankin Score (0-14), mean ± SD (Lewis rats; tarsal joints, 10 mg/kg, vehicle 7.92 ± 0.74): 3.50 ± 1.27
Total Synovitis Score (0-10), mean ± SD (Lewis rats; tarsal joints, 10 mg/kg, vehicle 8.25 ± 1.57): 3.92 ± 1.36
IC50 (human ERα): 0.107 µM
